Data: the supplement of paper PMC10949913

Experiments:
Settings in all cases: 48 h
CU-ACC2 [1] = experiment: AC50 viability; higher = less potent
How it was run: (§1)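 Three adrenocortical carcinoma cell lines were seeded at 500–1,000 cells/well in 5 µL medium in 1,536-well plates. 23 nL of each MIPE 5.0 library compound was added at 11 concentrations. After 48 h (per the protocol name), CellTiter-Glo was added for 15 minutes at room temperature and luminescence was read. Signals were normalised per plate to vehicle and empty-well controls. AC50 and area under the curve came from fitted concentration-response curves, keeping only inhibitory or non-responding curve classes.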

NCI-H295R [2] = experiment: AC50 viability; higher = less potent
How it was run: as §1

CU-ACC1 = experiment: area under concentration-response curve (viability) (AUC (a.u.)); higher = less active
How it was run: as §1

CU-ACC2 [3] = experiment: as above
How it was run: as §1

NCI-H295R [4] = experiment: as above
How it was run: as §1

SMILES | AC50 viability (CU-ACC2 [1]) [µM] | AC50 viability (NCI-H295R [2]) [µM] | area under concentration-response curve (CU-ACC1) | area under concentration-response curve (CU-ACC2 [3]) | area under concentration-response curve (NCI-H295R [4])
O=c1[nH]c2ccccc2n1C1CCN(Cc2ccc(-c3nc4cc5nc[nH]c5cc4nc3-c3ccccc3)cc2)CC1 | 20.9 | 20.9 | 558 | 604 | 492
NC(=O)Nc1cc(-c2cccc(F)c2)sc1C(=O)N[C@H]1CCCNC1 | 8.33 | 2.35 | 397 | 432 | 410
CC[S+](=O)([O-])Nc1ccc2c(c1)/C(=C(/Nc1ccc(CN3CCCCC3)cc1)c1ccccc1)C(=O)N2 | 3.32 | 5.25 | 447 | 425 | 408
N#Cc1ccc2c(c1)CN([S+](=O)([O-])c1cccs1)[C@H](Cc1ccccc1)CN2Cc1cnc[nH]1 | 0.833 | 8.33 | 350 | 405 | 485
C=C1C(=O)[C@@]23C(CC[C@@H]1[C@H]2O)[C@@]12CO[C@]3(O)[C@@H](O)[C@@H]1C(C)(C)CC[C@@H]2O (stereo not given in full) | 11.8 | 18.6 | 486 | 551 | 529
Cn1ncc(Cl)c1-c1cc(C(=O)N[C@H](CN)Cc2ccc(F)c(F)c2)sc1Cl | 14.8 | 14.8 | 488 | 550 | 473
Cc1ccc(-n2nc(C(C)(C)C)cc2N/C(O)=N/Cc2cc(F)ccc2Oc2ccc3c(cnn3CCO)c2)cc1 | 20.9 | 33.2 | 518 | 549 | 522
CN[C@H]1CCC2=CC(=C(OC)C(=C2C/3=C/C=C(OC)\C(=O)/C=C13)OC)OC | 0.468 | 0.0934 | 478 | 463 | 417
N=C(NCCCCCCNC(=N)NC(=N)Nc1ccc(Cl)cc1)NC(=N)Nc1ccc(Cl)cc1 | 23.5 | 14.8 | 511 | 573 | 443
CC(C)C(N)C(=O)OCC(CO)OC[N]1C=NC2=C1N\C(=N/C2=O)N (stereo not given) | 5.25 | 0.661 | 426 | 436 | 436
CN1CCN(c2ccc(C(=O)Nc3n[nH]c4ccc(Cc5cc(F)cc(F)c5)cc34)c(NC3CCOCC3)c2)CC1 | 5.25 | 5.9 | 470 | 470 | 434
Cc1cc(Nc2ncc(Cl)c(Nc3ccccc3[S+](=O)([O-])C(C)C)n2)c(OC(C)C)cc1C1CCNCC1 | 16.6 | 5.9 | 439 | 495 | 419
O=C(Nc1cc(Oc2cc(F)c(NC(=O)C3(C(=O)Nc4ccc(F)cc4)CC3)cc2F)ccn1)C1CC1 | 8.33 | 10.5 | 445 | 504 | 482
CN1CCN(Cc2ccc(Nc3ncc(Cl)/c(=N\c4ccccc4[S+](=O)([O-])N(C)C)[nH]3)cc2)CC1 | 0.108 | 0.241 | 437 | 378 | 364
C[C@@H]1CC[C@@]2(CC[C@]3(C)\C(=C/C[C@@H]4[C@@]5(C)C[C@@H](O)[C@H](O)[C@@](C)(CO)[C@@H]5CC[C@@]34C)[C@@H]2[C@H]1C)C(O)=O | 1.18 | 2.35 | 371 | 410 | 354
COc1ccc2[nH]c3c(c2c1)CCN[C@]31CS[C@@H]2c3c(OC(C)=O)c(C)c4c(c3[C@H](COC1=O)N1[C@@H]2[C@H]2c3c(cc(C)c(OC)c3O)C[C@@H]([C@@H]1O)N2C)OCO4 | 0.00762 | 0.00762 | 178 | 187 | 161
CCCCC(C)(C)[C@H](O)/C=C/[C@H]1[C@H](O)CC(=O)[C@@H]1C/C=C\CCCC(=O)O | 0.105 | 0.00372 | 325 | 307 | 211
C[C@@H](OC[C@@]1(c2ccccc2)CC[C@]2(CCC(=O)N2)CN1)c1cc(C(F)(F)F)cc(C(F)(F)F)c1 | 20.9 | 16.6 | 550 | 566 | 497
CN1CCC(C1CO)C2=C(O)C=C(O)C3=C2O\C(=C/C3=O)C4=CC=CC=C4Cl (stereo not given) | 0.833 | 3.32 | 431 | 417 | 422
CC[P](CC)(CC)=[Au][S][C@@H]1O[C@H](COC(C)=O)[C@@H](OC(C)=O)[C@H](OC(C)=O)[C@H]1OC(C)=O | 1.86 | 2.09 | 439 | 445 | 400
O=C(c1ccc(/C=C/c2n[nH]c3ccccc23)cc1)N1CCNCC1 | 20.9 | 0.263 | 423 | 391 | 397
CC[S+](=O)([O-])N1CC(CC#N)(n2cc(-c3ncnc4[nH]ccc34)cn2)C1 | 20.9 | 18.6 | 472 | 530 | 513
COC1=C(OCCCN2CCOCC2)C=C3N=CC=C(OC4=CC=C(C=C4F)\C5=C\N=C(\NC6=CC=C(F)C=C6)N(C)C5=O)C3=C1 | 18.6 | 8.33 | 474 | 528 | 400
N#CC(c1ccnc(NCCc2cccnc2)n1)c1nc2ccccc2s1 (stereo not given) | 16.6 | 20.9 | 509 | 493 | 410
CC(=O)O[C@H]1C(=O)[C@]2(C)[C@@H](O)C[C@H]3OC[C@@]3(OC(C)=O)C2[C@H](OC(=O)C4=CC=CC=C4)[C@]5(O)C[C@H](OC(=O)[C@H](O)[C@@H](NC(=O)C6=CC=CC=C6)C7=CC=CC=C7)\C(=C1/C5(C)C)C (stereo not given in full) | 8.33 | 0.209 | 424 | 473 | 379
CN(C)Cc1ccc([S+](=O)([O-])n2ccc(/C=C/C(=O)NO)c2)cc1 | 9.34 | 16.6 | 461 | 496 | 465
N[S+](=O)([O-])c1cccc2c1C(=O)c1cccc(O)c1C2=O | 0.661 | 0.661 | 315 | 380 | 370

SMILES | AC50 viability (CU-ACC2 [1]) [µM] | AC50 viability (NCI-H295R [2]) [µM] | area under concentration-response curve (CU-ACC1) | area under concentration-response curve (CU-ACC2 [3]) | area under concentration-response curve (NCI-H295R [4])
Cc1nc([C@](C)(O)CO)sc1-c1cnc(N)c(O[C@H](C)c2cc(F)ccc2-n2nccn2)c1 | 1.86 | 2.63 | 480 | 520 | 421
Cc1ccc(C(=O)OCc2ccc([C@@H](CN)C(=O)Nc3ccc4cnccc4c3)cc2)c(C)c1 | 9.11 | 12.9 | 507 | 591 | 534
COc1ccc([S+](=O)([O-])N(C(C)=O)c2ccccc2/C=C/c2cc[n+]([O-])cc2)cc1 | 20.9 | 5.25 | 482 | 557 | 506
O=C1Nc2cc(Br)ccc2/C1=C1/Nc2ccccc2/C1=N\O | 18.6 | 23.5 | 480 | 515 | 511
C=CC(=O)Nc1cccc(Oc2nc(Nc3ccc(N4CCN(C)CC4)c(F)c3)nc3[nH]ccc23)c1 | 18.6 | 20.9 | 504 | 557 | 492
COc1cccc2c1C(=O)c1c(O)c3c(c(O)c1C2=O)C[C@@](O)(C(=O)CO)C[C@@H]3O[C@H]1C[C@H](N)[C@H](O)[C@H](C)O1 | 5.9 | 16.6 | 461 | 485 | 452
C[C@H]1[C@H](OC(=O)CCC(=O)O)O[C@@H]2O[C@@]3(C)CC[C@H]4[C@H](C)CC[C@@H]1[C@@]24OO3 | 20.9 | 20.9 | 354 | 585 | 522
Clc1ccc(C(Cn2ccnc2)OCc2c(Cl)cccc2Cl)c(Cl)c1 (stereo not given) | 18.6 | 20.9 | 371 | 525 | 473
N[S+](=O)([O-])OC[C@@H]1C[C@@H](n2ccc3c(N[C@H]4CCc5ccccc54)ncnc32)C[C@@H]1O | 0.468 | 1.66 | 467 | 360 | 468
O=C(Nc1ccc([N+](=O)[O-])cc1Cl)c1cc(Cl)ccc1O | 1.48 | 1.48 | 411 | 471 | 481
O=C1c2ccccc2-[n+]2ccc3c([nH]c4ccccc43)c21 | 2.35 | 2.35 | 379 | 381 | 374
Cc1c(O)cccc1C(=O)NC(CSc1ccccc1)C(O)CN1CC2CCCCC2CC1C(=O)NC(C)(C)C (stereo not given) | 20.9 | 23.5 | 406 | 550 | 561
CN1C(=O)c2sccc2N(C)c2nc(Nc3ccc([S+](N)(=O)[O-])cc3)ncc21 | 14.8 | 5.25 | 460 | 467 | 431
CC(=O)O/N=C1/C(=C2\C(=O)Nc3cc(Br)ccc32)Nc2ccccc21 | 9.34 | 13.2 | 492 | 561 | 525
CCN(CC)CCNc1ccc(C)c2sc3ccccc3c(=O)c12 | 20.9 | 20.9 | 447 | 489 | 456
CC1(COc2ccc3c(c2)ncn3-c2ccc3cccc(N4CCC(N)CC4)c3n2)COC1 | 13.2 | 16.6 | 545 | 556 | 439
CCc1nc(C(N)=O)c(Nc2ccc(N3CCC(N4CCN(C)CC4)CC3)c(OC)c2)nc1NC1CCOCC1 | 13.2 | 4.17 | 533 | 477 | 500
CC[C@@H]([C@H](C)O)N1\N=C/N(C1=O)C2=CC=C(C=C2)N3CCN(CC3)C4=CC=C(OCC5CO[C@@](C5)(C[N]6C=NC=N6)C7=C(F)C=C(F)C=C7)C=C4 (stereo not given in full) | 7.42 | 8.33 | 403 | 447 | 423
NCC(=O)NC1=CC(=CN=C1)\C2=N\N/3C(=O)\C=C(/N=C3S2)N4CCNCC4 | 0.0934 | 0.00417 | 269 | 254 | 143
CN1C/C=C/CCOc2cccc(c2)-c2ccnc(n2)Nc2cccc(c2)C1 | 0.0525 | 0.235 | 208 | 165 | 164
Cn1c2ccccc2c2c3c(c4c5ccccc5n(CCC#N)c4c21)CNC3=O | 16.6 | 14.8 | 401 | 535 | 503
Cc1cnc(Nc2ccc(F)cc2Cl)nc1-c1c[nH]c(C(=O)N[C@H](CO)c2cccc(Cl)c2)c1 | 18.6 | 26.3 | 500 | 572 | 532
COc1cc2ncn(-c3cc(OCc4ccccc4[S+](C)(=O)[O-])c(C#N)s3)c2cc1OC | 33.2 | 37.2 | 351 | 399 | 376
CC(=O)O[C@@]12CO[C@@H]1C[C@H](O)[C@@]1(C)C(=O)[C@H](O)C3=C(C)[C@@H](OC(=O)[C@H](O)[C@@H](NC(=O)OC(C)(C)C)c4ccccc4)C[C@@](O)([C@@H](OC(=O)c4ccccc4)[C@H]21)C3(C)C | 20.9 | 0.417 | 302 | 334 | 270
N#Cc1cc2cc(CN3CCC(Nc4ncnc5sc(CC(F)(F)F)cc45)CC3)c(O)cc2n1Cc1cn[nH]c1 | 18.6 | 18.6 | 527 | 565 | 501
Cc1cc(O)c(-c2ccc([C@@H](C)CN)cc2)c2c1[nH]c(=O)c1sccc12 | 0.148 | 0.00105 | 203 | 223 | 128
COC(=O)[C@@]12OC[C@]34[C@H]([C@@H](O)[C@@H]1O)[C@@]1(C)CC(=O)C(O)=C(C)[C@@H]1C[C@H]3OC(=O)[C@H](OC(=O)/C=C(\C)C(C)C)[C@@H]24 | 0.0417 | 0.263 | 251 | 280 | 316
